{
  "source": "patent US20250375475A1",
  "about": "(priority 2024, published 2025)",
  "key": {"[1]": {"details": "natural zinc, blood to brain across the BBB; cited from earlier work"}, "microglia": {"system": "microglia", "assay": "Reactive oxygen species in microglia (FIG. 6)"}, "astroglia": {"system": "astroglia", "details": "FIG. 2"}, "CD206": {"system": "CD206", "assay": "CD206 expression (FIG. 5)"}, "microglia/macrophages": {"system": "microglia/macrophages", "details": "FIG. 7; LPS-lesioned rats"}, "circulating leukocytes": {"system": "circulating leukocytes", "assay": "Absolute number of circulating leukocytes (FIG. 3)", "details": "rodents"}},
  "data": [
    {"compound": "[Zn]", "note": "[zinc]", "values": [
      {"measurement": "zinc in the blood taken up by brain tissues", "setting": "[1]", "result": "2-3%"}
    ]},
    {"compound": "^64Zn L-Aspartate", "values": [
      {"measurement": "reactive oxygen species in microglia", "setting": "microglia", "result": "reduction"},
      {"measurement": "inflammation as evidenced by astroglia", "setting": "astroglia", "result": "lowered the inflammation significantly"},
      {"measurement": "CD206 expression", "setting": "CD206", "result": "reduction"},
      {"measurement": "GFAP in blood", "setting": "GFAP; FIG. 1A, blood", "result": "significant reduction"},
      {"measurement": "GFAP in the brain and periphery", "setting": "GFAP; FIG. 1B, brain and periphery", "result": "significant reduction"},
      {"measurement": "oxidative stress as indicated by metabolic characteristics of microglia/macrophages", "setting": "microglia/macrophages", "result": "significantly reduced oxidative stress"},
      {"measurement": "absolute number of circulating leukocytes", "setting": "circulating leukocytes", "result": "normalization"}
    ]}
  ]
}
